According to ChEMBL document CHEMBL4411260, “Dual Inhibition of TYK2 and JAK1 for the Treatment of Autoimmune Diseases: Discovery of (( S)-2,2-Difluorocyclopropyl)((1 R,5 S)-3-(2-((1-methyl-1 H-pyrazol-4-yl)amino)pyrimidin-4-yl)-3,8-diazabicyclo[3.2.1]octan-8-yl)methanone (PF-06700841)” (J Med Chem, 2018):
≈ marks a conversion by molar mass, not a printed value.

Key:
[1] = Cmin in complete freund's adjuvant-induced Lewis rat arthritis model plasma at 10 mg/kg, po qd administered via gavage treated for 7 consecutive days measured after 24 hrs post last dose; format: ADME, organism-based; conditions: read-out: Cmin
[2] = Cmax in Sprague-Dawley rat at 3 mg/kg, po; format: ADME, organism-based; set-up: dose 3 mg/kg, route oral; conditions: in vivo
[3] = Volume of distribution at steady state in Sprague-Dawley rat at 1 mg/kg, iv or 3 mg/kg, po; format: ADME, organism-based; conditions: in vivo, read-out: Vdss
[4] = Plasma clearance in Sprague-Dawley rat at 1 mg/kg, iv or 3 mg/kg, po; format: ADME, organism-based
[5] = Oral bioavailability in Sprague-Dawley rat at 3 mg/kg; format: ADME, organism-based; conditions: in vivo
[6] = AUC (0 to infinity) in Sprague-Dawley rat at 3 mg/kg, po; format: ADME, organism-based; set-up: dose 3 mg/kg, time infinity, route oral; conditions: in vivo
[7] = Cmax in complete freund's adjuvant-induced Lewis rat arthritis model plasma at 10 mg/kg, po qd administered via gavage treated for 7 consecutive days measured after 30 mins post last dose; format: ADME, organism-based; set-up: dose 10 mg/kg, route oral
[8] = Cmin in complete freund's adjuvant-induced Lewis rat arthritis model plasma at 3 mg/kg, po qd administered via gavage treated for 7 consecutive days measured after 24 hrs post last dose; format: ADME, organism-based; conditions: read-out: Cmin
[9] = Cmin in complete freund's adjuvant-induced Lewis rat arthritis model plasma at 30 mg/kg, po qd administered via gavage treated for 7 consecutive days measured after 24 hrs post last dose; format: ADME, organism-based; conditions: read-out: Cmin
[10] = Cmax in complete freund's adjuvant-induced Lewis rat arthritis model plasma at 3 mg/kg, po qd administered via gavage treated for 7 consecutive days measured after 30 mins post last dose; format: ADME, organism-based; set-up: dose 3 mg/kg, route oral; conditions: in vivo, 0.5 h
[11] = Cmax in complete freund's adjuvant-induced Lewis rat arthritis model plasma at 30 mg/kg, po qd administered via gavage treated for 7 consecutive days measured after 30 mins post last dose; format: ADME, organism-based; set-up: dose 30 mg/kg, route oral
[12] = Passive apparent permeability from apical to basolateral side in RRCK cells; format: ADME, cell-based, Canis lupus familiaris, MDCKII-LE; conditions: dog, MDCK
[13] = Unbound intrinsic clearance in human hepatocytes assessed as per million cells; format: ADME, cell-based, Hepatocyte
[14] = Drug metabolism in rat liver microsomes assessed as oxidative metabolite formation; format: ADME, Microsome
[15] = Drug metabolism in monkey liver microsomes assessed as oxidative metabolite formation; format: ADME, Macaca mulatta, Microsome; conditions: rhesus monkey
[16] = Drug metabolism in monkey liver microsomes assessed as CYP3A4-mediated metabolism; format: ADME, Macaca mulatta; conditions: rhesus monkey
[17] = Drug metabolism in monkey liver microsomes assessed as N-dealkylation; format: ADME, Macaca mulatta, Microsome; conditions: rhesus monkey
[18] = Drug metabolism in human liver microsomes assessed as N-dealkylation; format: ADME, Microsome
physchem = conditions: octanol/water phosphate buffer, pH 7.4
[19] = Solubility of compound in fasted state simulated intestinal fluid; format: physicochemical
[20] = Drug metabolism in human liver microsomes assessed as N-demethylation; format: ADME, Microsome
[21] = Drug metabolism in monkey liver microsomes assessed as N-demethylation; format: ADME, Macaca mulatta, Microsome; conditions: rhesus monkey
[22] = biological target: T1, Vascular endothelial growth factor receptor 2 (Homo sapiens, UniProt P35968); experiment: Inhibition of recombinant human VEGFR2 using Ulight-CAGAGAIETDKEYYTVKD as substrate after 60 mins
T1 sequence (P35968 whole entry): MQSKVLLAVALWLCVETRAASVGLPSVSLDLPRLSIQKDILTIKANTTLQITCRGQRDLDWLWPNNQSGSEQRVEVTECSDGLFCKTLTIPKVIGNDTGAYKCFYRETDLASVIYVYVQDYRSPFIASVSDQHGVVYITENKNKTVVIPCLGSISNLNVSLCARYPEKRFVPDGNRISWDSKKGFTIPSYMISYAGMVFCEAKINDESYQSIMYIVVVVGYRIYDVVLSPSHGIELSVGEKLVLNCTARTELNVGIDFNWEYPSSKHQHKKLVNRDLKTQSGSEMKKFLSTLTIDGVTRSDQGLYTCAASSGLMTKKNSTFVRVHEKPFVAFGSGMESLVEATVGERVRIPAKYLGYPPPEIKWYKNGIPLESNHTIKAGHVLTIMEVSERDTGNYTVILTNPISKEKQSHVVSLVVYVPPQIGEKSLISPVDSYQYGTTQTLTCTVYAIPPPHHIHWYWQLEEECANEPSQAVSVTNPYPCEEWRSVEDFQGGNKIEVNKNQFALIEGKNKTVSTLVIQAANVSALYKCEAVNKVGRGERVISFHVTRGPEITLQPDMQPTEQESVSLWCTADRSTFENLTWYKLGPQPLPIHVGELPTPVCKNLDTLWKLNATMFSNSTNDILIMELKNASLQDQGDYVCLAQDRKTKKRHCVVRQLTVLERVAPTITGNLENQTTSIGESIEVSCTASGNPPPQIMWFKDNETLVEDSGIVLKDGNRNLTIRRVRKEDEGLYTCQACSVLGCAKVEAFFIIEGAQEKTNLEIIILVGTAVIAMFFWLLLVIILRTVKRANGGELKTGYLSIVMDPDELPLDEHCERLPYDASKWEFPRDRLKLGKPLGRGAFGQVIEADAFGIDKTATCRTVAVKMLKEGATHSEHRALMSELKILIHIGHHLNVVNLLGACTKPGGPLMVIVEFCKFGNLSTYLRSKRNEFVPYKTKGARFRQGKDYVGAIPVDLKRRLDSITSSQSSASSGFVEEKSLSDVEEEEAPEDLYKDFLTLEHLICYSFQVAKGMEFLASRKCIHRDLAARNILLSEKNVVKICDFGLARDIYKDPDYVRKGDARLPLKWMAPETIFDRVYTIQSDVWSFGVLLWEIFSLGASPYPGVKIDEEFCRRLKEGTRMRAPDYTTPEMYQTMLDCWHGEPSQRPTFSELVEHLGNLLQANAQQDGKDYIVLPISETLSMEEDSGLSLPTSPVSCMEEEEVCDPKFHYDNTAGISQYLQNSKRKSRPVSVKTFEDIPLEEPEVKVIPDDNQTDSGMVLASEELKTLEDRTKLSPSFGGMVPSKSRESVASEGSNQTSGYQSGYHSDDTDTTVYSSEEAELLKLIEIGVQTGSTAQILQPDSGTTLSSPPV

[23] = Drug metabolism in rat liver microsomes assessed as CYP3A4-mediated metabolism; format: ADME
[24] = Fraction unbound in rat plasma; format: ADME, cell-free
[25] = Solubility of compound in fed state simulated intestinal fluid; format: physicochemical
[26] = Unbound intrinsic clearance in human liver microsomes assessed as per mg protein; format: ADME, Microsome
[27] = Drug metabolism in human liver microsomes assessed as oxidation of N-methy pyrazole; format: ADME, Microsome
[28] = Drug metabolism in monkey liver microsomes assessed as oxidation of N-methy pyrazole; format: ADME, Macaca mulatta, Microsome; conditions: rhesus monkey
Cytochrome P450 3A4 = Cytochrome P450 3A4 (Homo sapiens, UniProt P08684); experiment: Drug metabolism in human liver microsomes assessed as CYP3A4-mediated metabolism; format: ADME
Chain of Cytochrome P450 3A4 (P08684 whole entry): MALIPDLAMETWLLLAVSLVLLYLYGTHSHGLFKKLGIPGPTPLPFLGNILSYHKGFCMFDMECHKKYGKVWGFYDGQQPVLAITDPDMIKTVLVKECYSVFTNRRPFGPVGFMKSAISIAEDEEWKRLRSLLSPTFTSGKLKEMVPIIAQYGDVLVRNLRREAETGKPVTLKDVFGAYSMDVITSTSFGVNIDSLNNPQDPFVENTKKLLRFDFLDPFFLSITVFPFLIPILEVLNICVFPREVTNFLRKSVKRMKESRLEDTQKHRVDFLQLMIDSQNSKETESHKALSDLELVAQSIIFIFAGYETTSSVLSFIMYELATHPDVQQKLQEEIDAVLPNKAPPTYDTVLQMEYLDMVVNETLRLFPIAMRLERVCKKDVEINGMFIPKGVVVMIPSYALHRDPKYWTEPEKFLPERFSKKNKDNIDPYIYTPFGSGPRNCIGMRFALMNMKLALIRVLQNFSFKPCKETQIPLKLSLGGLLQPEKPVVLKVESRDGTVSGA

[29] = Drug metabolism in human liver microsomes assessed as oxidative metabolite formation; format: ADME, Microsome
[30] = Drug metabolism in rat liver microsomes assessed as N-demethylation; format: ADME, Microsome
[31] = Fraction unbound in human plasma; format: ADME, cell-free
[32] = Thermodynamic equilibrium solubility of the compound at pH 7.64 phosphate buffer saline by UPLC analysis; format: physicochemical; conditions: read-out: Therm_solubility
[33] = Drug metabolism in rat liver microsomes assessed as oxidation of N-methy pyrazole; format: ADME, Microsome
[34] = biological target: T1, Vascular endothelial growth factor receptor 2; experiment: Inhibition of VEGFR2 (unknown origin) by cell based assay
[35] = Drug metabolism in rat liver microsomes assessed as N-dealkylation; format: ADME, Microsome

`Cc1ccc(S(=O)(=O)O)cc1.Cn1cc(Nc2nccc(N3CC4CC[C@H](C3)N4C(=O)[C@@H]3CC3(F)F)n2)cn1` (single isomer, unassigned) showed a concentration at 24 h [1] of 60 nM, a Cmax [2] of 774 ng/mL and a Vd [3] of 2 L/kg. It also gave a clearance [4] of 31 mL/min/kg, a bioavailability [5] of 83% and an AUC(0-inf) [6] of 1340 ng·h/mL. It also gave a Cmax [7] of 11000 nM, a concentration at 24 h [8] of 22.1 nM and a concentration at 24 h [9] of 60 nM. For the same compound, the Cmax [10] was 3540 nM and the Cmax [11] was 23900 nM.
For `Cn1cc(Nc2nccc(N3CC4CC[C@H](C3)N4C(=O)[C@@H]3CC3(F)F)n2)cn1` (single isomer, unassigned), the Papp A→B [12] was 18.8 ×10⁻⁶ cm/s, the CL free [13] was under 0.6 µL/min and the Drug metabolism [14] was “Metabolite_Detected”. For the same compound, the Drug metabolism [15] was “Metabolite_Detected”, the Drug metabolism [16] was “Metabolite_Detected” and the Drug metabolism [17] was “Metabolite_Detected”. The Drug metabolism [18] was “Metabolite_Detected”, the logD (physchem) was 1.61 and the solubility [19] was over 7000 µg/mL. The Drug metabolism [20] was “Metabolite_Detected”, the Drug metabolism [21] was “Metabolite_Detected” and the IC50 [22] was 1.6 µM. The Drug metabolism [23] was “Metabolite_Detected”, the fraction unbound [24] was 0.69 and the solubility [25] was over 7000 µg/mL. The CL free [26] was under 10 µL/min, the Drug metabolism [27] was “Metabolite_Detected” and the Drug metabolism [28] was “Metabolite_Detected”. For the same compound, the Drug metabolism (Cytochrome P450 3A4) was “Metabolite_Detected”, the Drug metabolism [29] was “Metabolite_Detected” and the Drug metabolism [30] was “Metabolite_Detected”. For the same compound, the fraction unbound [31] was 0.61, the solubility thermodynamic [32] was 4840 µg/mL (≈ 12.4 mM) and the Drug metabolism [33] was “Metabolite_Detected”. The IC50 [34] was over 30 µM and the Drug metabolism [35] was “Metabolite_Detected”.
